We go through 1 molecule from patent US7572252B1 (priority 1995, dated 2009).

Molecules are shown by their SMILES.

The data set is described as follows: Transdermal electrotransport goserelin delivery at two constant current densities (Example 4). The class given is in vivo, human. The method, then:
This study was undertaken to evaluate the relationship between current density and drug flux in the transdermal electrotransport delivery of goserelin. The study involved the application of electrotransport devices, applying constant current, to 12 normal male volunteers for a duration of 8 hours.
The two electrotransport treatment regimens in this study differed only in applied current density levels. The electrotransport devices delivered goserelin through the skin from polyvinyl alcohol (PVOH)-based donor hydrogels having a skin-contact surface area of 4 cm^2. The gels contained an aqueous goserelin solution. The current density levels used in this study were 50 and 100 μA/cm^2. After an 8 hour treatment period, the electrotransport devices were removed. The skin site was then washed to remove any residual goserelin. All 12 volunteers received each treatment seven days apart.
For each treatment, seven blood samples were taken over a 24 hour period commencing with the application of current from the electrotransport devices. Serum goserelin concentrations from each patient were used to calculate mean drug flux and the mean total amount of drug delivered.

For the molecule `CC(C)C[C@H](NC(=O)[C@@H](COC(C)(C)C)NC(=O)[C@H](Cc1ccc(O)cc1)NC(=O)[C@H](CO)NC(=O)[C@H](Cc1c[nH]c2ccccc12)NC(=O)[C@H](Cc1cnc[nH]1)NC(=O)[C@@H]1CCC(=O)N1)C(=O)N[C@@H](CCCNC(=N)N)C(=O)N1CCC[C@H]1C(=O)NNC(N)=O` [goserelin], the “average transdermal goserelin flux” value (50 microA/cm^2 constant current, 4 cm^2, 8 h) is 5.8 microgram per hour. Also, the “average transdermal flux of goserelin” value (100 microA/cm^2 constant current, 4 cm^2, 8 h) was 21.6 µg/h. The “increase in drug flux” value (current density rises from 50 to 100 μA/cm^2) is on record as “almost four-fold increase”.
